{
  "source": "PubChem BioAssay AID1963428",
  "about": "(Molecular Pharmacology Branch, DTP, NCI, 2024);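 on viability, T/C: spheroids exposed to compounds for 7 days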",
  "test_system": "171881-019-R-J1-PDC complex spheroid growth, % test/control",
  "assay": "Anticancer human tumor 171881-019-R-J1-PDC patient-derived invasive breast carcinoma cell line growth inhibition [Asc]",
  "settings": "for IC50: curve of first compound; for viability, T/C: stronger effect = lower value",
  "method_in_brief": "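Stromal components (HUVEC and hMSC) are co-assembled with the cancer cells into multicellular spheroids. Drugs are then added singly or paired, at concentrations falling by half-log increments from a clinically achievable maximum, capped at 10 microM without known Cmax.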",
  "data": [
    {"smiles": "Cc1nc(N2CCC3(CC2)COC(C)C3N)c(CO)nc1Sc1ccnc(N)c1Cl", "note": "(stereo not given) + CCN1C(C(=O)NC23CCC(C(=O)O)(CC2)CC3)C(c2cccc(Cl)c2F)C2(C(=O)Nc3cc(Cl)ccc32)C12CCCCC2", "values": [
      {"measurement": "IC50", "setting": "second compound 0.03 µM", "value": "> 3000", "unit": "nM"},
      {"measurement": "IC50", "setting": "second compound 0.0949 µM", "value": "> 3000", "unit": "nM"},
      {"measurement": "IC50", "setting": "second compound 0.3 µM", "value": "> 3000", "unit": "nM"},
      {"measurement": "IC50", "setting": "second compound 0.949 µM", "value": "> 3000", "unit": "nM"},
      {"measurement": "IC50", "setting": "second compound 3 µM", "value": "> 3000", "unit": "nM"},
      {"measurement": "viability, T/C", "setting": "second compound 0.03 µM, first compound 0.00949 µM", "value": 87.3, "unit": "%"},
      {"measurement": "viability, T/C", "setting": "second compound 0.03 µM, first compound 0.03 µM", "value": 101, "unit": "%"},
      {"measurement": "viability, T/C", "setting": "second compound 0.03 µM, first compound 0.0949 µM", "value": 153, "unit": "%"},
      {"measurement": "viability, T/C", "setting": "second compound 0.03 µM, first compound 0.3 µM", "value": 152, "unit": "%"},
      {"measurement": "viability, T/C", "setting": "second compound 0.03 µM, first compound 0.949 µM", "value": 126, "unit": "%"},
      {"measurement": "viability, T/C", "setting": "second compound 0.03 µM, first compound 3 µM", "value": 109, "unit": "%"},
      {"measurement": "viability, T/C", "setting": "second compound 0.0949 µM, first compound 0.00949 µM", "value": 80.7, "unit": "%"},
      {"measurement": "viability, T/C", "setting": "second compound 0.0949 µM, first compound 0.03 µM", "value": 99.1, "unit": "%"},
      {"measurement": "viability, T/C", "setting": "second compound 0.0949 µM, first compound 0.0949 µM", "value": 165, "unit": "%"},
      {"measurement": "viability, T/C", "setting": "second compound 0.0949 µM, first compound 0.3 µM", "value": 178, "unit": "%"},
      {"measurement": "viability, T/C", "setting": "second compound 0.0949 µM, first compound 0.949 µM", "value": 121, "unit": "%"},
      {"measurement": "viability, T/C", "setting": "second compound 0.0949 µM, first compound 3 µM", "value": 114, "unit": "%"},
      {"measurement": "viability, T/C", "setting": "second compound 0.3 µM, first compound 0.00949 µM", "value": 112, "unit": "%"},
      {"measurement": "viability, T/C", "setting": "second compound 0.3 µM, first compound 0.03 µM", "value": 109, "unit": "%"},
      {"measurement": "viability, T/C", "setting": "second compound 0.3 µM, first compound 0.0949 µM", "value": 158, "unit": "%"},
      {"measurement": "viability, T/C", "setting": "second compound 0.3 µM, first compound 0.3 µM", "value": 171, "unit": "%"},
      {"measurement": "viability, T/C", "setting": "second compound 0.3 µM, first compound 0.949 µM", "value": 141, "unit": "%"},
      {"measurement": "viability, T/C", "setting": "second compound 0.3 µM, first compound 3 µM", "value": 103, "unit": "%"},
      {"measurement": "viability, T/C", "setting": "second compound 0.949 µM, first compound 0.00949 µM", "value": 90.8, "unit": "%"},
      {"measurement": "viability, T/C", "setting": "second compound 0.949 µM, first compound 0.03 µM", "value": 105, "unit": "%"},
      {"measurement": "viability, T/C", "setting": "second compound 0.949 µM, first compound 0.0949 µM", "value": 134, "unit": "%"},
      {"measurement": "viability, T/C", "setting": "second compound 0.949 µM, first compound 0.3 µM", "value": 184, "unit": "%"},
      {"measurement": "viability, T/C", "setting": "second compound 0.949 µM, first compound 0.949 µM", "value": 134, "unit": "%"},
      {"measurement": "viability, T/C", "setting": "second compound 0.949 µM, first compound 3 µM", "value": 95.2, "unit": "%"},
      {"measurement": "viability, T/C", "setting": "second compound 3 µM, first compound 0.00949 µM", "value": 109, "unit": "%"},
      {"measurement": "viability, T/C", "setting": "second compound 3 µM, first compound 0.03 µM", "value": 127, "unit": "%"},
      {"measurement": "viability, T/C", "setting": "second compound 3 µM, first compound 0.0949 µM", "value": 175, "unit": "%"},
      {"measurement": "viability, T/C", "setting": "second compound 3 µM, first compound 0.3 µM", "value": 166, "unit": "%"},
      {"measurement": "viability, T/C", "setting": "second compound 3 µM, first compound 0.949 µM", "value": 122, "unit": "%"},
      {"measurement": "viability, T/C", "setting": "second compound 3 µM, first compound 3 µM", "value": 105, "unit": "%"}
    ]},
    {"smiles": "Cn1ncnc1[C@H]1c2n[nH]c(=O)c3cc(F)cc(c23)N[C@@H]1c1ccc(F)cc1", "note": "+ CNC(C)C(=O)NC1CN(S(=O)(=O)c2cccc(S(=O)(=O)N3CCC4CCC(C(=O)NC(c5ccccc5)c5ccccc5)N4C(=O)C(NC(=O)C(C)NC)C3)c2)CCC2CCC(C(=O)NC(c3ccccc3)c3ccccc3)N2C1=O", "values": [
      {"measurement": "IC50", "setting": "second compound 0.01 µM", "value": "> 100", "unit": "nM"},
      {"measurement": "IC50", "setting": "second compound 0.0316 µM", "value": "> 100", "unit": "nM"},
      {"measurement": "IC50", "setting": "second compound 0.1 µM", "value": "> 100", "unit": "nM"},
      {"measurement": "IC50", "setting": "second compound 0.316 µM", "value": "> 100", "unit": "nM"},
      {"measurement": "IC50", "setting": "second compound 1 µM", "value": "> 100", "unit": "nM"},
      {"measurement": "viability, T/C", "setting": "second compound 0.01 µM, first compound 0.000316 µM", "value": 78.9, "unit": "%"},
      {"measurement": "viability, T/C", "setting": "second compound 0.01 µM, first compound 0.001 µM", "value": 91.9, "unit": "%"},
      {"measurement": "viability, T/C", "setting": "second compound 0.01 µM, first compound 0.00316 µM", "value": 95.9, "unit": "%"},
      {"measurement": "viability, T/C", "setting": "second compound 0.01 µM, first compound 0.01 µM", "value": 101, "unit": "%"},
      {"measurement": "viability, T/C", "setting": "second compound 0.01 µM, first compound 0.0316 µM", "value": 89.3, "unit": "%"},
      {"measurement": "viability, T/C", "setting": "second compound 0.01 µM, first compound 0.1 µM", "value": 95.2, "unit": "%"},
      {"measurement": "viability, T/C", "setting": "second compound 0.0316 µM, first compound 0.000316 µM", "value": 103, "unit": "%"},
      {"measurement": "viability, T/C", "setting": "second compound 0.0316 µM, first compound 0.001 µM", "value": 98.5, "unit": "%"},
      {"measurement": "viability, T/C", "setting": "second compound 0.0316 µM, first compound 0.00316 µM", "value": 94.8, "unit": "%"},
      {"measurement": "viability, T/C", "setting": "second compound 0.0316 µM, first compound 0.01 µM", "value": 104, "unit": "%"},
      {"measurement": "viability, T/C", "setting": "second compound 0.0316 µM, first compound 0.0316 µM", "value": 104, "unit": "%"},
      {"measurement": "viability, T/C", "setting": "second compound 0.0316 µM, first compound 0.1 µM", "value": 92.4, "unit": "%"},
      {"measurement": "viability, T/C", "setting": "second compound 0.1 µM, first compound 0.000316 µM", "value": 95.3, "unit": "%"},
      {"measurement": "viability, T/C", "setting": "second compound 0.1 µM, first compound 0.001 µM", "value": 97.1, "unit": "%"},
      {"measurement": "viability, T/C", "setting": "second compound 0.1 µM, first compound 0.00316 µM", "value": 101, "unit": "%"},
      {"measurement": "viability, T/C", "setting": "second compound 0.1 µM, first compound 0.01 µM", "value": 100, "unit": "%"},
      {"measurement": "viability, T/C", "setting": "second compound 0.1 µM, first compound 0.0316 µM", "value": 96, "unit": "%"},
      {"measurement": "viability, T/C", "setting": "second compound 0.1 µM, first compound 0.1 µM", "value": 89, "unit": "%"},
      {"measurement": "viability, T/C", "setting": "second compound 0.316 µM, first compound 0.000316 µM", "value": 94.2, "unit": "%"},
      {"measurement": "viability, T/C", "setting": "second compound 0.316 µM, first compound 0.001 µM", "value": 97.4, "unit": "%"},
      {"measurement": "viability, T/C", "setting": "second compound 0.316 µM, first compound 0.00316 µM", "value": 94.8, "unit": "%"},
      {"measurement": "viability, T/C", "setting": "second compound 0.316 µM, first compound 0.01 µM", "value": 95.3, "unit": "%"},
      {"measurement": "viability, T/C", "setting": "second compound 0.316 µM, first compound 0.0316 µM", "value": 97.8, "unit": "%"},
      {"measurement": "viability, T/C", "setting": "second compound 0.316 µM, first compound 0.1 µM", "value": 90.7, "unit": "%"},
      {"measurement": "viability, T/C", "setting": "second compound 1 µM, first compound 0.000316 µM", "value": 85, "unit": "%"},
      {"measurement": "viability, T/C", "setting": "second compound 1 µM, first compound 0.001 µM", "value": 98.5, "unit": "%"},
      {"measurement": "viability, T/C", "setting": "second compound 1 µM, first compound 0.00316 µM", "value": 93.3, "unit": "%"},
      {"measurement": "viability, T/C", "setting": "second compound 1 µM, first compound 0.01 µM", "value": 83.8, "unit": "%"},
      {"measurement": "viability, T/C", "setting": "second compound 1 µM, first compound 0.0316 µM", "value": 107, "unit": "%"},
      {"measurement": "viability, T/C", "setting": "second compound 1 µM, first compound 0.1 µM", "value": 85.5, "unit": "%"}
    ]}
  ]
}
